Measurements: patent publication US20050267182A1, “Urea derivatives as FLT-3 modulators” (Ambit Biosciences Corporation, priority 2003, published 2005)

Biological target: T1, FLT3 (Homo sapiens, UniProt P36888)
T1 construct: FLT3(DKIN); made in house
T1 sequence (P36888 610-943 limits assumed): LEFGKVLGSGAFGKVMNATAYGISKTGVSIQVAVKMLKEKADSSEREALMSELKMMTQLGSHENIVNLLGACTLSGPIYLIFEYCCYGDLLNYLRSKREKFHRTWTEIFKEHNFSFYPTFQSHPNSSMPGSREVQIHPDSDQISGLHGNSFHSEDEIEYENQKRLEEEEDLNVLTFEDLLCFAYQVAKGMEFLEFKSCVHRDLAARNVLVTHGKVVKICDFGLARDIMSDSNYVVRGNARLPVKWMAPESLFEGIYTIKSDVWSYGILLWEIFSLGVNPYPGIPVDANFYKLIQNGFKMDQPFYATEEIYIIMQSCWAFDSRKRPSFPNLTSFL
Assay: Binding constant (Kd) measurement, phage-displayed kinase competition binding assay
Settings: FLT3(DKIN) construct
Source text: Binding Constant (Kd) Measurements for Small-Molecule-Kinase Interactions
The term “ND” represents non-determined values.

| Compound | Binding Assay: FLT3(DKIN) | Kd [µM] |
| --- | --- | --- |
| CCCCc1ccc(NC(=O)Nc2cc(C(C)(C)C)nn2C)cc1 [Compound D12] | + + + | – |
| CC(C)(C)c1cc(NC(=O)Nc2ccc(C(=O)NCc3ccc4c(c3)OCO4)cc2)no1 [Compound N97] | + + + | – |
| CC(C)(C)c1cc(NC(=O)Nc2ccc(NC(=O)C3CCCCC3)cc2)no1 [Compound N91] | + + + + | – |
| O=C(Nc1ccc(Cl)cc1)Nc1cc(C2CC2)nn1-c1ccccc1 [Compound D10] | + + + | – |
| CSc1ccc(NC(=O)Nc2cc(C(C)(C)C)no2)cc1 [Compound A39] | + + + | – |
| Cc1ccc(NC(=O)Nc2cc(C(F)(F)F)cc(Cl)n2)cc1 [Compound W1] | + + + + | – |
| CC(C)(C)c1cc(N2CCCN(c3ccc(OCc4ccccc4)cc3)C2=O)on1 [Compound E2] | + + + | – |
| CC(C)(C)c1cc(NC(=O)Nc2ccc(OCc3c(Cl)cccc3Cl)cc2)no1 [Compound G19] | + + + + | – |
| Cc1ccc(-n2nc(C(C)(C)C)cc2NC(=O)Nc2ccc(O)cc2)cc1 [Compound H12] | + + + | – |
| CC(C)c1ccc(NC(=O)Nc2cc(C(C)(C)C)on2)cc1 [Compound A25] | + + | – |
| CC(=O)NS(=O)(=O)c1ccc(NC(=O)Nc2cc(C(C)(C)C)on2)cc1 [Compound V4] | – | > 10 |
| CSc1ccc(NC(=O)Nc2cc(C(C)(C)C)on2)cc1 [Compound A37] | + + + + | – |
| C[S+]([O-])c1ccc(NC(=O)Nc2cc(C(C)(C)C)on2)cc1 (centres unmarked) [Compound A46] | + + + | – |
| CC(C)(C)c1cc(NC(=O)Nc2cccc(Cl)c2)no1 [Compound A48] | + + + | – |
| COc1ccc(N(C)C(=O)Nc2cc(C(C)(C)C)on2)cc1 [Compound J10] | + + + | – |
| CC(C)(C)c1cc(NC(=O)Nc2ccc(Cl)cc2Cl)no1 [Compound A7] | + + + | – |
| CC(C)(C)c1cc(NC(=O)Nc2ccc(F)cc2)no1 [Compound A47] | + + + | – |
| Cc1ccc(-n2nc(C(C)(C)C)cc2NC(=O)Nc2ccc(C(C)C)cc2)cc1 [Compound D1, 1-(3-tert-butyl-1-p-tolyl-1H-pyrazol-5-yl)-3-(4-isopropylphenyl)urea] | + + | – |
| CC(C)(C)c1cc(NC(=O)Nc2ccc(Cl)cc2)on1 [Compound A32] | + + + | – |
| O=C(Nc1ccc(Br)cc1)Nc1cc(C(F)(F)F)cc(Cl)n1 [Compound Z72] | + + + | – |
| CCN(CC)CCNC(=O)c1ccc(NC(=O)Nc2cc(C(C)(C)C)on2)cc1 [Compound N102] | – | > 10 |
| CC(C)(C)c1cc(NC(=O)Nc2ccc3cc4ccccc4cc3c2)no1 [Compound A18] | + + + | – |
| CC(C)(C)c1cc(NC(=O)Nc2ccc(-c3nc(-c4ccc(C(F)(F)F)cc4)no3)cc2)no1 [Compound P8] | + + + | – |

| Compound | Binding Assay: FLT3(DKIN) | Kd [µM] |
| --- | --- | --- |
| CC(C)(C)c1cc(NC(=O)Nc2ccc(O)cc2)no1 [Compound A31] | + + + | – |
| CC(C)c1ccc(NC(=O)Nc2cc(C(C)(C)C)no2)cc1 [Compound A11] | + + | – |
| C/C=C/C(=O)Nc1ccc(NC(=O)Nc2cc(C(C)(C)C)on2)cc1 [Compound N93] | + + + | – |
| Cn1nc(C(C)(C)C)cc1NC(=O)Nc1ccc(Cl)cc1 [Compound D11] | + + + | – |
| Cc1ccc(NC(=O)Nc2cc(C(C)(C)C)on2)cc1 [Compound A33] | + + + + | – |
| CC(C)(C)c1cc(NC(=O)Nc2ccc(NC(=O)Cc3ccc(OCc4ccccc4)cc3)cc2)no1 [Compound N98] | + + + | – |
| CC(C)(C)c1cc(NC(=O)Nc2ccc(OC(F)F)cc2)no1 [Compound A12] | + + | – |
| Cc1ccc(S(=O)(=O)Nc2ccc(NC(=O)Nc3cc(C(C)(C)C)on3)cc2)cc1 [Compound V2] | + + | – |
| O=C(Nc1ccc(OCc2ccccc2)cc1)Nc1cc(C2CC2)nn1-c1ccccc1 [Compound H8] | + + + | – |
| C[C@H](NC(=O)c1ccc(NC(=O)Nc2cc(C(C)(C)C)on2)cc1)c1ccccc1 [Compound N88] | + + + | – |
| CC(C)(C)c1cc(NC(=O)Nc2cc(C(C)(C)C)on2)on1 [Compound A54] | + + + | – |
| CC(C)(C)c1cc(NC(=O)Nc2ccc(-c3ccccc3)cc2)no1 [Compound A23] | + + + + | – |
| CC(C)(C)c1cc(NC(=O)Nc2ccc(CC(=O)O)cc2)no1 [Compound C3] | + + | – |
| COc1cccc(CNC(=O)Nc2cc(C(C)(C)C)on2)c1 [Compound B3] | + + + + | – |
| CC(C)(C)c1cc(NC(=O)Nc2ccccc2)no1 [Compound A34] | + + + | – |
| CC(Oc1ccc(NC(=O)Nc2cc(C(C)(C)C)on2)cc1)c1ccccc1 (centres unmarked) [Compound G17] | + + + + | – |
| CC(C)(C)c1cc(NC(=O)NN2CCCCC2)no1 [Compound Z57] | + + + | – |
| COc1ccc(N(N)C(=O)Nc2cc(C(C)(C)C)on2)cc1 [Compound J14] | + + + | – |
| COc1ccc(NC(=O)Nc2cc(C(C)(C)C)on2)cc1 [Compound A29] | + + + + | – |
| O=C(Nc1ccc(Cl)cc1)Nc1ccc(-n2nc(Br)c(Br)c2Br)cc1 [Compound Z49] | + + + | – |
| CC(C)(C)c1cc(NC(=O)Nc2ccc(Cl)cc2)no1 [Compound A27] | + + + | – |
| CC(C)(C)c1cc(NC(=O)Nc2ccc(C(=O)NCc3ccccc3)cc2)no1 [Compound N89] | + + + | – |
| O=C(Nc1ccc(Cl)cc1)Nc1cc(C2CC2)nn1-c1ccccc1 [Compound D2] | + + + + | – |

| Compound | Binding Assay: FLT3(DKIN) | Kd [µM] |
| --- | --- | --- |
| CCOC(=O)NN(C(=O)Nc1cc(C(C)(C)C)on1)c1ccc(OC)cc1 [Compound J13] | + + + | – |
| Cn1nc(C(C)(C)C)cc1NC(=O)Nc1ccc(F)cc1 [Compound Z19] | + + + | – |
| CC(C)(C)c1cc(NC(=O)Nc2ccc(NC(=O)c3c(F)cccc3C(F)(F)F)cc2)no1 [Compound N95] | + + + | – |
| CC(C)(C)c1cc(NC(=O)Nc2ccccc2)no1 [Compound A2] | + + + + | – |
| Cn1nc(C2CC2)cc1NC(=O)Nc1ccc(OCc2ccccc2)cc1 [Compound H7] | + + | – |
| CC(C)(C)c1cc(NC(=O)Nc2ccc(OC(F)(F)F)cc2)on1 [Compound A13] | + + | – |
| CC(C)(C)c1cc(NC(=O)Nc2ccc(Cl)c(C(F)(F)F)c2)no1 [Compound A1, 1-(5-tert-butylisoxazol-3-yl)-3-(4-chloro-3-(trifluoromethyl)phenyl)urea] | + + + | – |
| CC(C)(C)c1cc(NC(=O)Nc2ccc(NC(=O)c3c(Cl)cccc3Cl)cc2)no1 [Compound N94] | + + + + | – |
| CC(C)(C)c1cc(NC(=O)Nc2ccc(C(=O)O)cc2)no1 [Compound C2] | + + | – |
| CC(C)(C)c1cc(NC(=O)Nc2ccc(C(N)=O)cc2)no1 [Compound N86] | + + + + | – |
| Cc1ccc(CNc2ccc(NC(=O)Nc3cc(C(C)(C)C)on3)cc2)cc1 [Compound O9] | + + + + | – |
| Cc1ccc(-n2nc(C(C)(C)C)cc2NC(=O)Nc2cc(C(C)(C)C)on2)cc1 [Compound H11] | + + + + | – |
| CC(C)(C)c1cc(NC(=O)Nc2ccc(C(=O)NCCO)cc2)no1 [Compound N87] | + + + | – |
| O=C(Nc1ccc(Cl)cc1)Nc1cc(C(F)(F)F)cc(Cl)n1 [Compound Z76] | + + + | – |
| COc1ccc(NC(=O)Nc2cc(C(C)(C)C)nn2-c2ccc(C)cc2)cc1 [Compound H15] | + + + + | – |
| CC(C)(C)c1cc(NC(=O)Nc2ccc(OCCN3CCOCC3)c3ccccc23)no1 [Compound K1] | + + + | – |
| CC(C)(C)c1cc(NC(=O)Nc2ccc(Oc3ccccc3)cc2)no1 [Compound A24] | + + + + | – |
| Cc1cc(NC(=O)Nc2ccc(OCc3ccccc3)cc2)n(-c2ccccc2)n1 [Compound H4] | + + + | – |
| COc1ccc(N(C)C(=O)N(C)c2cc(C(C)(C)C)no2)cc1 [Compound J8] | – | > 10 |
| O=C(Nc1cccc(Cl)c1)Nc1cc(C(F)(F)F)cc(Cl)n1 [Compound Z74] | + + + | – |
| COc1ccc(NC(=O)Nc2cc(C(C)(C)C)no2)cc1 [Compound A30] | + + + + | – |
| Cc1ccc(-n2nc(C(C)(C)C)cc2NC(=O)Nc2ccc(Cl)cc2)cc1 [Compound H14] | + + + + | – |
